Source: patent US8163756B2 (priority 2004, dated 2012)
pIC50: −log10 of the molar value.

Tests used:
Assay type in all cases: biochemical
KDR kinase = KDR kinase (Homo sapiens, UniProt P35968, DEL940-989/E990V); assay: KDR kinase assay K2 (as K1, 2.1 nM enzyme, 2 h pre-incubation, 1.0 mM ATP); settings: Method K2; read-out: KDR Data (IC50)
Method: (§1) IC50 values were calculated from a series of percent inhibition values determined at a range of inhibitor concentrations using software routines as implemented in the GraphPad Prism software package.

Abl kinase [1] = target: T1, Abl kinase (Homo sapiens, UniProt P00519); assay: Abl kinase assay A2 (as A1, 1.1 nM enzyme, 2 h pre-incubation, 0.5 mM ATP)
T1 sequence (P00519 229-512): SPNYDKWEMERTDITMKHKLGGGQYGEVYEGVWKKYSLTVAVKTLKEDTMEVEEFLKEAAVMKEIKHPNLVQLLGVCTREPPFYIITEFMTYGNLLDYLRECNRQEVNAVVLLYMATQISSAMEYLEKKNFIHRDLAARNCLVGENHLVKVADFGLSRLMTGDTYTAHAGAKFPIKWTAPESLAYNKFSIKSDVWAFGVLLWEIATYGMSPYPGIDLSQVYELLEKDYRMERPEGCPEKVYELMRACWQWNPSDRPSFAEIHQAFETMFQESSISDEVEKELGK
Method: as §1

[2] = target: phosphorylated p-38-alpha kinase (Homo sapiens, UniProt Q16539); assay: P-38 alpha kinase assay P1 (coupled spectrophotometric, 2 h pre-incubation); settings: method P1 (2 h pre-incubation); read-out: P-38 Data
Chain of phosphorylated p-38-alpha kinase (Q16539 1-360 isoform Q16539-2): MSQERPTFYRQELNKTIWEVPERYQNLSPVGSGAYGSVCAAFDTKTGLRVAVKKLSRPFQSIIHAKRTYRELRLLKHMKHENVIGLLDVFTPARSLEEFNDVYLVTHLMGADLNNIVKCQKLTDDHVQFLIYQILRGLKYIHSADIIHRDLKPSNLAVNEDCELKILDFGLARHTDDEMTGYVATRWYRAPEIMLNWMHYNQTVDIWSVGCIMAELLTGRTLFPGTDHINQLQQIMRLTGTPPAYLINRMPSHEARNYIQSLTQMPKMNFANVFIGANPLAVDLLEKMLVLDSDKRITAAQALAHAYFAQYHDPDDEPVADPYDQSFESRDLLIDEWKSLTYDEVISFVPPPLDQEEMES

B-Raf(V599E) kinase [3] = target: T2, B-Raf(V599E) kinase (Homo sapiens, UniProt P15056, V600E); assay: B-Raf(V599E) kinase assay B1 (construct 1, MEK1 substrate, coupled spectrophotometric)
Method: (§2) The test compounds were incubated with the reaction mixtureat 30° C. for 2 h. […] The reaction rate was calculated using the […] time frame. […] IC50 values were calculated from a series of percent inhibition values determined at a range of inhibitor concentrations using software routines as implemented in the GraphPad Prism software package.
Target sequence in this assay (P15056 with tags, fused parts or gaps V600E): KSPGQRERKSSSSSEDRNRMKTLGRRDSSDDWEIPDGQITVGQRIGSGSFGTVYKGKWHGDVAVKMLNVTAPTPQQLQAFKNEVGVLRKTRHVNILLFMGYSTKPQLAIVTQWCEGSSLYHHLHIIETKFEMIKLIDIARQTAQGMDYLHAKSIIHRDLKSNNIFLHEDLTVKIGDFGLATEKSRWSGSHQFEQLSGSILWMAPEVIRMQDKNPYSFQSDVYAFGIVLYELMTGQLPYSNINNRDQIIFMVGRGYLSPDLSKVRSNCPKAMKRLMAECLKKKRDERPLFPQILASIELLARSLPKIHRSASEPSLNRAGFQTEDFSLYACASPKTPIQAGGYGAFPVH

Abl kinase [4] = target: T1, Abl kinase; assay: Abl kinase assay A1 (pyruvate kinase/lactate dehydrogenase coupled, spectrophotometric); settings: Method A1; read-out: Abl Data (IC50)
Method: as §1

B-Raf(V599E) kinase [5] = target: T2, B-Raf(V599E) kinase; assay: B-Raf(V599E) kinase assay B2 (construct 2 at 2 nM, 1 h pre-incubation)
Method: as §2
Target sequence in this assay (P15056 433-726 V600E): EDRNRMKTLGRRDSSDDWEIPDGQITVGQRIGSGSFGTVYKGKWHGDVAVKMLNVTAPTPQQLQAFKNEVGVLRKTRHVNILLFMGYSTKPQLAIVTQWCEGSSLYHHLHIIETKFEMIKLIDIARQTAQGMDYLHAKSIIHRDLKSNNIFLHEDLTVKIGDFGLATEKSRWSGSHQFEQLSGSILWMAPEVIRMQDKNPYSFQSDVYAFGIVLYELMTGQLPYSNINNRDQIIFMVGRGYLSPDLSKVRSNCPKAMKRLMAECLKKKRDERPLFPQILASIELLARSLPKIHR
Same as assay B1 except that (1) construct 2 was employed at a nominal concentration of 2 nM (2) the reaction was pre-incubated at 30° C. for 1 h prior to initiation with ATP (3) a reading time frame of 0.5 h to 1.5 h.

[6] = Method A2, read-out: Abl Data (IC50)

Chain of KDR kinase (P35968 with tags, fused parts or gaps DEL940-989/E990V): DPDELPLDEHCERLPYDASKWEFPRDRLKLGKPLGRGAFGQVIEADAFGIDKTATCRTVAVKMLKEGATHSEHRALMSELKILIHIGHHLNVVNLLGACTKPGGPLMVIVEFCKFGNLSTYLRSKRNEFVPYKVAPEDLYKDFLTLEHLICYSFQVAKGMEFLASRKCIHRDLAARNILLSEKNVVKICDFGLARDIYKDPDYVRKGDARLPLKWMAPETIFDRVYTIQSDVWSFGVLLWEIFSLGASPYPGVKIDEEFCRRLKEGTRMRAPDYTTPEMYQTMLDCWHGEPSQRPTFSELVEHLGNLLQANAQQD

SMILES | pIC50 (KDR kinase) | pIC50 (Abl kinase [1]; [6]) | pIC50 [2] | pIC50 (B-Raf(V599E) kinase [3]) | pIC50 (Abl kinase [4]) | pIC50 (B-Raf(V599E) kinase [5]) | pIC50 (Abl kinase [1])
NC(=O)Cc1cccc(-c2ccc(C(F)(F)F)cc2NC(=O)Nc2ccc(-c3cccc4c3CNC4=O)cc2)c1 [Example 33, [1,1′-biphenyl]-2′-(3-(4-(1-oxoisoindolin-4-yl)phenyl)ureido)-4′-(trifluoromethyl)-3-acetic acid amide] | 7.85 | 6.60 | 6.52 | – | – | – | –
CC(C)(C)c1cc(NC(=O)Nc2cccc(Oc3cccnc3)c2)n(-c2ccc3ncccc3c2)n1 [Example 55, 1-(3-t-butyl-1-(quinolin-6-yl)-1H-pyrazol-5-yl)-3-(3-(pyridin-3-yloxy)phenyl)urea] | 8.40 | 8.46 | 6.89 | 8.27 | – | – | –
CC(C)(C)c1cc(NC(=O)Nc2cc(F)cc(F)c2F)n(-c2cc(CC(N)=O)c3ccccc3c2)n1 [Example 85, 1-(1-(4-(2-amino-2-oxoethyl)naphthalen-2-yl)-3-t-butyl-1H-pyrazol-5-yl)-3-(2,3,5-trifluorophenyl)urea] | – | – | – | – | 7.48 | 6.66 | –
CC(C)(C)c1cc(NC(=O)Nc2cccc(Oc3cccnc3)c2)n(-c2ccc3c(c2)CCNC3)n1 [Example 141, 1-(3-t-butyl-1-(1,2,3,4-tetrahydro-isoquinolin-6-yl)-1H-pyrazol-5-yl)-3-(3-(pyridin-3-yloxy)phenyl)urea] | 8.07 | – | 6.14 | 8.12 | – | – | 8.82
CC(C)(C)c1cc(NC(=O)Nc2cccc(Oc3cccnc3)c2)n(-c2ccc3c(c2)CC(C(N)=O)NC3)n1 (centres unmarked) [Example 179, 1-(3-t-butyl-1-(3-carbamoyl-1,2,3,4-tetrahydroisoquinolin-6-yl)-1H-pyrazol-5-yl)-3-(3-(pyridin-3-yloxy)phenyl)urea] | 8.19 | 8.52 | 7.02 | 7.77 | – | – | –
CNC(=O)C1NCCc2cc(-n3nc(C(C)(C)C)cc3NC(=O)Nc3cccc(Oc4cccnc4)c3)ccc21 (centres unmarked) [Example 180, 1-(3-t-butyl-1-(1-(methylcarbamoyl)-1,2,3,4-tetrahydroisoquinolin-6-yl)-1H-pyrazol-5-yl)-3-(3-(pyridin-3-yloxy)phenyl)urea] | 8.11 | 8.05 | 7.19 | 7.96 | – | – | –
CNC(=O)C1Cc2cc(-n3nc(C(C)(C)C)cc3NC(=O)Nc3cccc(Oc4cccnc4)c3)ccc2CN1 (centres unmarked) [Example 190, 1-(3-t-butyl-1-(3-(methylcarbamoyl)-1,2,3,4-tetrahydroisoquinolin-6-yl)-1H-pyrazol-5-yl)-3-(3-(pyridin-3-yloxy)phenyl)urea] | 8.09 | 8.40 | 7.11 | – | – | – | –
CC(C)(C)c1cc(NC(=O)Nc2cc(F)c(F)cc2F)n(-c2cccc(-c3cccnc3)c2)n1 [Example 275, 1-(3-t-butyl-1-(3-(pyridin-3-yl)phenyl)-1H-pyrazol-5-yl)-3-(2,4,5-trifluorophenyl)urea] | – | – | – | – | – | 6.08 | –
CC(C)(C)c1cc(NC(=O)Nc2cccc(Oc3cccnc3)c2)n(-c2cccc(-c3cccnc3)c2)n1 [Example 277, 1-(3-t-butyl-1-(3-(pyridin-3-yl)phenyl)-1H-pyrazol-5-yl)-3-(3-(pyridin-3-yloxy)phenyl)urea] | 8.00 | 7.54 | 6.74 | 7.96 | – | – | –
CC(C)(C)c1cc(NC(=O)Nc2cccc(Cl)c2Cl)n(-c2cccc(-c3n[nH]c(=O)o3)c2)n1 [Example 278, 1-(3-t-butyl-1-(3-(5-oxo-4,5-dihydro-1,3,4-oxadiazol-2-yl)phenyl)-1H-pyrazol-5-yl)-3-(2,3-dichlorophenyl)urea] | – | – | – | – | – | 6.82 | –
NC(=O)C1CCc2ccc(-n3nc(C4CCCC4)cc3NC(=O)Nc3cccc(Cl)c3Cl)cc21 (centres unmarked) [Example 305, 1-(1-(3-carbamoyl-2,3-dihydro-1H-inden-5-yl)-3-cyclopentyl-1H-pyrazol-5-yl)-3-(2,3-dichlorophenyl)urea] | – | – | 7.72 | – | – | 6.10 | –
